Data as given in patent US10654868B2, “Dihydropyrazole azepine compound serving as Akt inhibitor” (HARBIN ZHENBAO PHARMACEUTICAL CO., LTD., priority 2016, dated 2020).
pIC50: −log10 of the molar value.

Legend:
[1] = biological target: T1, Akt1 (Homo sapiens, UniProt P31749); experiment: Akt1 kinase inhibition, LANCE TR-FRET; assay type: biochemical
T1 construct: purchased life technology lot11629928C (lot number only, catalogue number not given)
Experimental: (§1) Study 1: The Inhibitory Effect of the Compounds on the Activity of Akt1, Akt2 and Akt3
Akt1 protein (life technology # lot11629928C)
(§2) In this experiment, a homogeneous time-resolved fluorescence […] energy transfer (LANCE TR-FRET®) method was used. In the assay plate, enzymes, biotinylated polypeptide substrates and compound to be tested were mixed, and ATP was added to initiate the reaction and the mixture was incubated. After that, EDTA was added to terminate the reaction while an Eu-labeled antibody was added to carry out the reaction and the reaction was then detected. The assay plate was analyzed by PE company's Envision, and the analysis mode was TR-FRET. The data were represented by fluorescence signals at 665 nm and 615 nm, respectively.
(§3) Compound formulation: compound to be tested and the reference compound were diluted with 100% DMSO, the initial concentration of the compound was 10 uM, and diluted by 10 times in a 3-fold gradient. Transfer the compound to the cell plate and duplicate each well.
(§4) Kinase assay: the enzyme and substrate were mixed with different concentrations of pre-diluted compounds. […] Leave at room temperature for 15 min and diplicate each concentration. ATP was added, and the final concentrations were 36 uM, 360 uM and 160 uM in Akt1, Akt2, and Akt3 kinase reactions, respectively, and the reaction was carried out for 90 min at room temperature (in which negative and positive controls were set). After the reaction was completed, the antibody was added and the mixture was detected, and the cells were incubated for 60 min at room temperature, and then collected by Evnvision. Data analysis and fitting according to *Lfit5 software.

[2] = biological target: T2, Akt2 (Homo sapiens, UniProt P31751); experiment: Akt2 kinase inhibition, LANCE TR-FRET; assay type: biochemical; settings: Akt2 2 nM, ATP 360 uM, 90 min at room temperature
T2 construct: purchased life technology lot 28870GG (lot number only, catalogue number not given)
Experimental: as §1
Akt2 protein (life technology # lot 28870GG)
as §2, §3, §4

[3] = biological target: T3, Akt3 (Homo sapiens, UniProt Q9Y243); experiment: Akt3 kinase inhibition, LANCE TR-FRET; assay type: biochemical; settings: Akt3 2 nM, ATP 160 uM, 90 min at room temperature
T3 construct: purchased life technology lot 1715050B (lot number only, catalogue number not given)
Experimental: as §1
Akt3 protein (life technology # lot 1715050B)
as §2, §3, §4

[4] = test system: LNCaP cells; experiment: LNCaP cell activity, CellTiter-Glo live cell detection; assay type: cell-based; settings: Homo sapiens, 72 h, 1000 cells per well, incubated 3 days, starting concentration 10 uM
Experimental: Study 2: inhibitory effects of compounds on LNCaP cell activity
The amount of ATP directly reflects the number and the state of the cells, and the number of live cells can be detected by quantitatively measuring ATP. The live cell assay kit contains luciferase and its substrate. Through the participation of ATP, luciferase can catalyze the substrate, emit a stable optical signal, and the amount of ATP in the cell was determined by detecting the intensity of the signal. Wherein, the optical signal is proportional to the amount of ATP in the cell, and ATP is positively correlated with the number of live cells, so that the cell proliferation can be detected. The assay board is analyzed by PE company's Envision.
LNCaP cell was separately seeded in a 384-well plate, each well contains 1000 cells. The cell plate was placed in a carbon dioxide incubator and incubated overnight.
A duplicated experiment was performed with 10 concentrations of compound in a 3-fold dilution with Bravo.
Compound was transferred to the cell plate with a starting concentration of 10 uM. The cell plate was incubated in a carbon dioxide incubator for 3 days.
The Promega CellTiter-Glo reagent was added to the cell plate and incubated for 10 min at room temperature to stabilize the optical signal. Read the data by a PerkinElmer Envision multi-label analyzer.

T1 sequence (P31749 whole entry): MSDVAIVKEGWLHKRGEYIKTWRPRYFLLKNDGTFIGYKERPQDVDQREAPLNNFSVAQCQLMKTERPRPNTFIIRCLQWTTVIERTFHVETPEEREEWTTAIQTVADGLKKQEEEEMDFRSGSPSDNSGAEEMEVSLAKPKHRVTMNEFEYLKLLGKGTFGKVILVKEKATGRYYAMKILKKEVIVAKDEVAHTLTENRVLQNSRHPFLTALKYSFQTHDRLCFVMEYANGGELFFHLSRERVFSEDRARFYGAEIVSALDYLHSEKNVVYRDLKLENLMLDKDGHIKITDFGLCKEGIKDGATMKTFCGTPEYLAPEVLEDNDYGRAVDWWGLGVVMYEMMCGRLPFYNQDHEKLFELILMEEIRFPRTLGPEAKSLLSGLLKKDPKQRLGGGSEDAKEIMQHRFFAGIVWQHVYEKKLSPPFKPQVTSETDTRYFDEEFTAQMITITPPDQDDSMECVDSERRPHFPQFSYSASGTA
T2 sequence (P31751 whole entry): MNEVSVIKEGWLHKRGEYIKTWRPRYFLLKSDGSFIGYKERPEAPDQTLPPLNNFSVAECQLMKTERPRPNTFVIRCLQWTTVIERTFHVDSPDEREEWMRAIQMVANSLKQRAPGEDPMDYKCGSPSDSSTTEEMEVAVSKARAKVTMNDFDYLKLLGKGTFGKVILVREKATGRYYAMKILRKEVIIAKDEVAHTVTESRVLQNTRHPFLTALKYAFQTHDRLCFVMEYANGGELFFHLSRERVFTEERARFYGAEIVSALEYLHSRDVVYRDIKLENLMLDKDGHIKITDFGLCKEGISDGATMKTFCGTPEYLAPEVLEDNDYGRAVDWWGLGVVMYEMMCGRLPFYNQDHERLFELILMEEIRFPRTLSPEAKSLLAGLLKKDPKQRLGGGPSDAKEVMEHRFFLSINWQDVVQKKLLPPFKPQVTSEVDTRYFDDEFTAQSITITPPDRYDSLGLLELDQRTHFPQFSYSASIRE
T3 sequence (Q9Y243 whole entry): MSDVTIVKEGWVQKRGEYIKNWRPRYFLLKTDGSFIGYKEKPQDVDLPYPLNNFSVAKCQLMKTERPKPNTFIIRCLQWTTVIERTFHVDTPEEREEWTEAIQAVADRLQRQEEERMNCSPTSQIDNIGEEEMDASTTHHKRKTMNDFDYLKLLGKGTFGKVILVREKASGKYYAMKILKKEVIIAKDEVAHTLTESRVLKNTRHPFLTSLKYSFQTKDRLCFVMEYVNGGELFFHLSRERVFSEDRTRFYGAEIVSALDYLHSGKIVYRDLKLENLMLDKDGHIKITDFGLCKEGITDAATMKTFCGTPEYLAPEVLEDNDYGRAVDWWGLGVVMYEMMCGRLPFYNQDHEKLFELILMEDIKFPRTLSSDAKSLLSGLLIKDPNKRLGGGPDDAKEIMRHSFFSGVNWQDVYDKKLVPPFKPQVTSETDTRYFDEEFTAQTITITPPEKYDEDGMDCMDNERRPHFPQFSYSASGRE

Row | Compound | pIC50 [1] | pIC50 [2] | pIC50 [3] | pIC50 [4]
1 | NC[C@H](Cc1ccc(F)c(F)c1)NC(=O)c1cc2c(s1)OCCn1ncc(Cl)c1-2 [Embodiment 38] | 9.44 | 7.24 | 7.17 | 6.93
2 | Cc1cnn2c1-c1cc(C(=O)N[C@H](CN)Cc3ccc(F)c(F)c3)sc1OCC2 [Embodiment 39] | 8.82 | 7.12 | 6.91 | 6.84
3 | Cc1cnn2c1-c1cc(C(=O)N[C@H](CN)Cc3cc(F)cc(F)c3)sc1OCC2 [Embodiment 40] | 9.06 | 7.18 | 6.77 | 7.06
4 | NC[C@H](Cc1cc(F)cc(F)c1)NC(=O)c1cc2c(s1)OCCn1ncc(Br)c1-2 [Embodiment 41] | 8.84 | 7.41 | 7.24 | 7.21
5 | N#Cc1cnn2c1-c1cc(C(=O)N[C@H](CN)Cc3ccc(F)c(F)c3)sc1OCC2 [Embodiment 42] | 7.56 | 6.05 | 6.38 | 6.18
